# According to the supplement of paper PMC10307832:
# Experiments:
# Assay in all cases: relative viability (nuclei count vs DMSO), 5 days (fraction); higher = more cells survive
# [1] = compound: CC1=C(C=CC(=C1)[N+](=O)[O-])NS(=O)(=O)C2=C(C=CC(=C2)Cl)Cl [FH535]
# Procedure, shortened: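 Acceptance criteria were a control CV below 25% and at least one doubling per plate. Lung cancer cell lines in 1536-well plates got five library-drug doses (not always all listed) √10 apart by pinning and were left 5 days with no medium change. Viability divides treated-well nuclei by vehicle-well nuclei and is the median across plates. Nuclei were counted by MetaXpress from 4× Hoechst images.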
# [2] = compound: CC1=C(C=CC(=C1)[N+](=O)[O-])NS(=O)(=O)C2=C(C=CC(=C2)Cl)Cl [FH535] + NC(=O)Nc1cc(-c2cccc(F)c2)sc1C(=O)N[C@H]1CCCNC1 [AZD7762] (partner 0.2 µM)
# Procedure, shortened: (§1)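 Relative viability divides the nuclei count in treated wells by that in vehicle wells. Lung cancer cell lines were seeded in 1536-well plates, dosed by pin tool the next day, and fixed and stained after 5 days in one step with final 0.05% Triton X-100, 1% formaldehyde and 1 ug/ml Hoechst. Dosing was a single drug or a fixed anchor-drug dose plus five library-drug doses (not always all listed) in √10 steps, and values are medians of duplicate plates imaged at 4×.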
# [3] = compound: CC1=C(C=CC(=C1)[N+](=O)[O-])NS(=O)(=O)C2=C(C=CC(=C2)Cl)Cl [FH535] + CC(=O)Nc1cccc(-n2c(=O)n(C3CC3)c(=O)c3c(Nc4ccc(I)cc4F)n(C)c(=O)c(C)c32)c1 [Trametinib] (partner 0.02 µM)
# Procedure, shortened: as §1
# [4] = compound: CC1=C(C=CC(=C1)[N+](=O)[O-])NS(=O)(=O)C2=C(C=CC(=C2)Cl)Cl [FH535] + CS(=O)(=O)CCNCc1ccc(-c2ccc3ncnc(Nc4ccc(OCc5cccc(F)c5)c(Cl)c4)c3c2)o1 [Lapatinib] (partner 2 µM)
# Procedure, shortened: as §1
# [5] = compound: CC1=C(C=CC(=C1)[N+](=O)[O-])NS(=O)(=O)C2=C(C=CC(=C2)Cl)Cl [FH535] + O=C(CCCCCCC(=O)Nc1ccccc1)NO [Vorinostat] (partner 1 µM)
# Procedure, shortened: as §1
Cell Line,relative viability ([1]; 0.04 µM),relative viability ([1]; 0.1265 µM),relative viability ([1]; 0.4 µM),relative viability ([1]; 1.265 µM),relative viability ([2]; first compound 0.04 µM),relative viability ([2]; first compound 0.1265 µM),relative viability ([2]; first compound 0.4 µM),relative viability ([2]; first compound 1.265 µM),relative viability ([3]; first compound 0.04 µM),relative viability ([3]; first compound 0.1265 µM),relative viability ([3]; first compound 0.4 µM),relative viability ([3]; first compound 1.265 µM),relative viability ([4]; first compound 0.04 µM),relative viability ([4]; first compound 0.1265 µM),relative viability ([4]; first compound 0.4 µM),relative viability ([4]; first compound 1.265 µM),relative viability ([5]; first compound 0.04 µM),relative viability ([5]; first compound 0.1265 µM),relative viability ([5]; first compound 0.4 µM),relative viability ([5]; first compound 1.265 µM)
HARA,0.855,0.876,0.779,0.711,0.19,0.426,0.305,0.358,0.759,0.711,0.643,0.461,0.743,0.802,0.8,0.73,0.376,0.489,0.511,0.341
EMC-BAC-2,0.808,0.953,0.913,0.839,0.828,1.06,1.04,0.985,0.804,0.9,0.869,0.892,0.788,0.926,0.894,0.813,0.297,0.449,0.419,0.308
PC-3 [JPC-3],0.971,1.04,0.906,0.621,0.773,0.83,0.656,0.508,0.726,0.829,0.691,0.607,0.405,0.39,0.444,0.39,0.757,0.769,0.687,0.529
NCI-H596,0.926,0.865,0.975,0.908,1.04,1.18,0.933,1.05,0.814,0.864,0.854,0.748,1.06,1.03,0.985,0.94,0.579,0.511,0.569,0.544
NCI-H1755,1,1.05,0.944,0.953,0.418,0.439,0.475,0.444,0.755,0.809,0.725,0.739,1.04,0.985,0.944,0.949,0.616,0.807,0.752,0.707
NCI-H2087,1.05,1.01,0.845,0.683,1.24,1.21,1.17,0.78,0.243,0.152,0.182,0.157,0.918,0.825,0.868,0.6,0.566,0.782,0.693,0.551
CAL-12T,0.989,0.977,0.819,0.591,0.594,0.643,0.536,0.397,0.336,0.438,0.367,0.347,0.612,0.633,0.726,0.476,0.562,0.927,0.802,0.492
NCI-H2085,0.96,0.967,0.97,0.852,1.03,1.06,0.783,0.828,0.567,0.624,0.503,0.403,0.744,0.686,0.692,0.573,0.815,0.849,0.659,0.62
LCLC-97TM1,0.809,0.913,0.844,0.913,0.127,0.276,0.278,0.227,0.175,0.191,0.178,0.203,–,0.766,0.837,0.833,0.203,0.568,0.706,0.745
NCI-H2126,0.961,1.02,0.888,0.67,0.973,1.05,0.857,0.874,0.541,0.624,0.535,0.392,0.734,0.679,0.696,0.676,0.72,0.782,0.727,0.567
201T,0.976,1,0.884,0.862,0.594,0.728,0.62,0.696,0.718,0.72,0.69,0.562,1.01,0.897,0.971,0.978,0.905,0.948,0.855,0.929
NCI-H1915,0.863,1.03,0.906,0.792,0.604,0.77,0.713,0.669,0.312,0.324,0.296,0.247,0.867,0.826,0.852,0.795,0.44,0.481,0.534,0.532
BEN,0.92,0.946,0.862,0.653,0.6,0.691,0.496,0.507,0.931,0.99,0.948,0.666,0.678,0.674,0.604,0.398,0.51,0.583,0.548,0.525
NCI-H2405,0.922,0.967,0.882,0.713,0.665,0.794,0.641,0.5,0.56,0.651,0.611,0.531,0.934,1.13,0.963,0.734,0.945,0.965,0.776,0.458
H3255,0.953,0.945,0.955,0.745,0.806,0.918,0.853,0.788,0.563,0.604,0.582,0.55,0.214,0.252,0.266,0.199,0.804,0.753,0.729,0.654
NCI-H460,0.997,1.03,0.935,0.699,0.616,0.615,0.603,0.337,0.12,0.152,0.157,0.103,0.992,1.08,1,0.575,0.72,0.743,0.674,0.447
NCI-H1975,0.919,0.965,0.87,0.82,0.638,0.793,0.591,0.554,0.329,0.232,0.287,0.329,0.863,0.748,0.715,0.73,0.651,0.744,0.675,0.622
NCI-H650,0.82,0.913,0.846,0.687,0.877,1.03,1.18,0.67,0.887,0.953,1.04,0.795,0.718,0.886,0.703,0.68,0.342,0.383,0.385,0.365
A-427,0.908,1.05,0.926,0.819,0.768,0.795,0.768,0.622,0.712,0.752,0.675,0.61,0.995,1.03,0.962,0.99,0.862,0.846,0.845,0.725
LXF-289,0.99,0.989,0.913,0.851,1.05,1.1,1.03,0.873,0.726,0.689,0.62,0.436,0.88,0.878,0.886,0.801,0.58,0.762,0.698,0.574
NCI-H838,0.962,0.96,0.851,0.777,0.893,1,0.902,0.891,0.536,0.52,0.452,0.462,0.971,0.873,0.795,0.734,0.704,0.754,0.659,0.591
NCI-H1437,0.976,0.934,0.731,0.422,1.11,1.13,1.01,0.502,0.498,0.567,0.386,0.32,0.731,0.534,0.631,0.349,0.905,0.847,0.629,0.304
HCC-44,0.994,0.943,0.836,0.747,1,0.961,0.898,0.866,1.06,0.986,1.03,0.967,1.06,1.03,0.977,0.773,1.11,1.1,1.03,0.818
EPLC-272H,0.838,0.934,0.796,0.774,0.241,0.226,0.259,0.206,0.272,0.296,0.299,0.262,0.677,1.1,0.827,0.831,0.442,0.42,0.437,0.406
NCI-H647,0.872,1.05,0.906,0.801,0.557,0.519,0.322,0.418,0.51,0.566,0.424,0.418,0.971,1.08,0.914,0.864,0.442,0.63,0.408,0.462
